Source: article PMC5760651, “Peptidomimetic blockade of MYB in acute myeloid leukemia” (Nature Communications, 2018)
Non-standard residues stand in square brackets, D forms with d. Residues, ends and D or L forms follow the SMILES beside them.

Experiments:
MV-411 cells [1] = experiment: H3K27Ac ChIP-PCR at the BCL2 enhancer; format: cell-based, human; settings: 20 μM, 24 h, ChIP-qPCR, compared to TG3 or untreated control, p = 8.6e-3
Description: Cross-linking was ended by the addition of 1/20 volume of 2.5 M Glycine for 5 min at room temperature followed by cell lysis and sonication ([…] Covaris sonicator) to obtain 100- to 500-bp chromatin fragments. H3K27Ac Rabbit polyclonal antibody (Abcam, #4729) was conjugated to Protein A and G Dynabeads per manufacturer's instructions (Thermo Fischer Scientific). Lysates were incubated overnight at 4 °C with antibody-conjugated beads in suspension. Precipitates were then washed sequentially with cold washing solution (1% NP-40, […], 50 mM Hepes-KOH, pH 7.6, 500 mM LiCl, 0.7% Na-Deoxycholate) and then washing solution (50 mM Tris-HCL, pH 8.0, 10 mM EDTA, 50 mM NaCl), then eluted in elution buffer (50 mM Tris-HCL, pH 8.0, 10 mM EDTA, 1% SDS). Reversal of crosslinks in elution buffer overnight at 65 °C followed by digestion of RNA and protein using RNase (Roche, Catalog No. 111119915-001) and Proteinase K (Roche, Catalog No. 03115828001). DNA purification was performed using PureLink PCR Purification Kit per manufacturer's protocol (Invitrogen). qPCR was performed as described below.

AML cells = experiment: Flow cytometry of differentiation markers; format: cell-based, human
Description: Cells were resuspended to a concentration of 1 × 10^6 cells were plated in triplicate in a 12-well tissue culture plate. For assessment of annexin V staining, cells were washed with PBS and then resuspended in PBS with Annexin V-APC (BioLegend) and propidium iodide at a dilution of 1:1000. For intracellular detection of cleaved caspase 3, cells were fixed and permeabilized using the BD Cytofix/Cytoperm Fixation/Permeabilization solution according to the manufacturer’s instructions (BD Biosciences). Cells were then stained using the Alexa Fluor 647-conjugated anti-active caspase-3 (BD Biosciences) at a dilution of 1:50. Cells were incubated for 30 minutes room temperature in the dark, washed, and then analyzed using the BD LSRFortessa cell analyzer. For assessment of differentiation, cells were stained using the anti-human CD14 PE at a dilution of 1:20 (Affymetrix eBiosciences) and anti-human CD66b at a dilution of 1:20 (Affymetrix eBiosciences).

MV-411 cells [2] = experiment: Growth and survival of MV-411 cells with ectopic BCL2 (MIG-BCL2) or empty MIG vector; format: cell-based, human; settings: 20 μM
Description: Cells were resuspended and plated at a concentration of 2 × 10^5 cells in 200 μl in 96-well tissue culture plates. Media with peptides was replaced every 48 h. To assess the number of viable cells, cells were resuspended in PBS and 10 µl of suspension was mixed in a 1:1 ratio with 0.4% Trypan Blue (Thermo Fisher) and counted using a hemacytometer (Hausser Scientific, Horsham, PA, USA). To assess viability using an ATP-based assay, cell viability was assessed using the CellTiter-Glo Luminescent Viability assay, according to the manufacturer’s instructions (Promega). Luminescence was recorded using the Infinite M1000Pro plate reader using integration time of 250 ms (Tecan).
The MIG-BCL2 vector was packaged using pUMVc and pCMV-VSVG vectors in HEK 293T cells and the FuGENE 6 transfection reagent, according to manufacturer’s instructions (Promega). Virus supernatant was collected at 48 and 72 h post transfection, pooled, filtered and stored at −80 °C. Cells were transduced with virus particles at a multiplicity of infection of 1 by spin inoculation for 90 min at 3500 rpm at 35 °C in the presence of 8 μg/ml hexadimethrine bromide. Two days after transduction, cells were isolated using fluorescence-activated cell sorting (FACSAria III, BD Bioscience, San Jose, CA, USA).

[3] = test system: primary patient-derived MLL-rearranged leukemia cells in NSG mice; experiment: Patient-derived MLL-rearranged leukemia xenograft, treatment upon peripheral leukemia; format: in vivo, mouse; settings: vs vehicle
Description: All mouse experiments were carried out in accordance with the Memorial Sloan Kettering Institutional Animal Care and Use Committee. For toxicity studies, female C57BL/6J mice (The Jackson Laboratory, Bar Harbor, Maine, USA) were treated with MYBMIM peptide suspended in PBS and administered daily through intraperitoneal injection at a dose of 25 mg/kg for a total of 7 days. Mice were sacrificed at the end of treatment for hematologic, biochemical and histologic analyses. For pharmacokinetic studies, C57BL/6J mice (The Jackson Laboratory, Bar Harbor, Maine, USA) were treated with a single IP injection of 25 mg/kg BIO-MYBMIM, and blood plasma was collected 30 min, 2 h, 4 h, and 24 h post-injection. Quantification of BIO-MYBMIM was measured using the Quant-Tag Biotin kit (Vector Labs, cat. # BDK-2000) following the manufacturer instructions. For patient-derived xenografts, two hundred thousand primary AML MLL-rearranged leukemia cells were suspended in […] of PBS and transplanted via tail vein injection into 8-week-old sublethally irradiated (200 rad) female NOD.Cg-Prkdc(scid)Il2rg(tm1Wjl)/SzJ mice (The Jackson Laboratory, Bar Harbor, Maine, USA). Recipient mice were maintained on antibiotic supplementation in chow (0.025% trimethoprim, 0.124% sulfamethoxazole, Sulfatrim). Three days after transplant, mice were randomly assigned to experimental treatment groups. […]

CC[C@@H](C)[C@@H](NC(=O)[C@@H](CCCCN)NC(=O)[C@@H](CCC(=O)O)NC(=O)[C@@H](CC(C)C)NC(=O)[C@@H](CCC(=O)O)NC(=O)[C@@H](CC(C)C)NC(=O)[C@@H](CC(C)C)NC(=O)[C@@H](CC(C)C)NC(=O)[C@@H](CCSC)NC(=O)[C@@H](CO)NC(=O)[C@H](NC(=O)[C@@H](CCC(=O)O)NC(=O)[C@@H](CC(N)=O)NC(=O)[C@@H](CCC(=O)O)NC(=O)[C@@H](CC(C)C)NC(=O)[C@@H](CCCCN)NC(C)=O)[C@H](C)O)C(=O)N[C@H](CCCNC(=N)N)C(=O)N[C@H](CCCCN)C(=O)NCC(=O)NCC(=O)N[C@H](CCCNC(=N)N)C(=O)N[C@H](CCCNC(=N)N)C(=O)N[C@H](CCCNC(=N)N)C(=O)N[C@H](CCC(N)=O)C(=O)N[C@H](CCCNC(=N)N)C(=O)N[C@H](CCCNC(=N)N)C(=O)N[C@H](CCCCN)C(=O)N[C@H](CCCCN)C(=O)N[C@H](CCCNC(=N)N)C(=O)NCC(=O)N[C@H](Cc1ccc(O)cc1)C(N)=O [MYBMIM] (Ac-[dK][dL][dE][dN][dE][dT][dS][dM][dL][dL][dL][dE][dL][dE][dK][dI][dR][dK]GG[dR][dR][dR][dQ][dR][dR][dK][dK][dR]G[dY]-NH2)
H3K27Ac at the BCL2 enhancer (MV-411 cells [1]): significant albeit incomplete reduction | CD14, CD66b and CD11b expression (AML cells): no significant changes | Cell growth and survival of mock-treated and MIG empty vector control transduced MV-411 cells (MV-411 cells [2]; p = 0.003): significant reduction of cell growth and survival | MYBMIM-induced apoptosis in cells ectopically overexpressing BCL2 (MV-411 cells [2]; MV-411 MIG-BCL2 cells): largely, though not completely, rescued | Leukemia burden by bone marrow analysis of human leukemia cells (hCD45) ([3]; NSG mice, 25 mg/kg IP twice daily, 21 days, 6 mice, p = 1.2e-4): significant reduction in leukemia burden | Levels of BCL2 in residual leukemia cells in the bone marrow ([3]; quantitative immunofluorescence, p = 0.3): minimal reduction
